According to patent US20220325245A1 (Board of Regents, The University of Texas System, priority 2019, published 2022):
Read-outs that look alike come from different tables or passages of the source.

How the values were obtained:
NT CB-NK cells = assay: Dimerizer effect on non-transduced cells (annexin-V/7AAD staining); format: cell-based; settings: 10 nM dimerizer
Description: iC9/CAR.19/IL15+ CB-NK cells are eliminated after activation of the suicide gene by exposure to a small-molecule dimerizer. To counteract the possibility of excessive toxicity mediated by the release of inflammatory cytokines by transduced CB-NK cells or uncontrolled NK cell growth, we incorporated a suicide gene based on the inducible caspase-9 gene in the construct (Di et al., 2011). […] The suicide gene was also effective in vivo.

GVHD = settings: patients who had received Capsase-9+ T cells; cited from earlier work
[1] = cited from earlier work
CLL = settings: alone or in combination with a corticosteroid; cited from earlier work
[2] = cited from earlier work; remark: listed apart in the source
[3] = molecular target: CD19 on CD19+ Raji cells and primary CLL cells (UniProt P15391); assay: cell-based or functional assay
Sequence of UniProt P15391 (P15391 20-556 limits assumed): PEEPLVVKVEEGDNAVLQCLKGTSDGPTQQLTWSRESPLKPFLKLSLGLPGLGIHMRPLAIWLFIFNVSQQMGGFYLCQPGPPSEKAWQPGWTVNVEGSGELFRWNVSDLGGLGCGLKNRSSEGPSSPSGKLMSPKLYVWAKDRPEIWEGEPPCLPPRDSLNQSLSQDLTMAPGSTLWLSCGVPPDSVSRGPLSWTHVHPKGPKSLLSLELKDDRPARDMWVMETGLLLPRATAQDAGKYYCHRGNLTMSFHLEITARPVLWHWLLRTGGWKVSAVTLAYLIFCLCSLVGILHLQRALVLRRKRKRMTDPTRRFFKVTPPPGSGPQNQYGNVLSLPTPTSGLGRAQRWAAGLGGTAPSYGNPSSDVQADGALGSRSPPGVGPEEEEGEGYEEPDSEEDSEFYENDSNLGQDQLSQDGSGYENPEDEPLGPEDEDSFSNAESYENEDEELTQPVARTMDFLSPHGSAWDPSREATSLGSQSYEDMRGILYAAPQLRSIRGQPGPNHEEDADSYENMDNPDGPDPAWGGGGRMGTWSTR

CC[C@H](C(=O)N1CCCC[C@H]1C(=O)O[C@H](CCc1ccc(OC)c(OC)c1)c1cccc(OCC(=O)NCCNC(=O)COc2cccc([C@@H](CCc3ccc(OC)c(OC)c3)OC(=O)[C@@H]3CCCCN3C(=O)[C@@H](CC)c3cc(OC)c(OC)c(OC)c3)c2)c1)c1cc(OC)c(OC)c(OC)c1 [AP1903]
viability of NT CB-NK cells (NT CB-NK cells): no effect
time to response of GVHD (GVHD): 24 to 48 h
plasma concentrations ([1]; 0.01 mg/kg to 1.0 mg/kg dose range): 10 to 1275 ng/mL
plasma level, percent of maximum ([1]; 0.5 hrs post dose): 18%
plasma level, percent of maximum ([1]; 2 hrs post dose): 7%

O=C(O)CCCc1ccc(N(CCCl)CCCl)cc1 [chlorambucil]
complete remission rates (CLL): 5-20%
overall response rate (CLL): 50-70%

RhIL-15: exogenous recombinant human IL-15
maximum serum concentration (Cmax) ([2]; 0.3 μg/kg per day): 1,260±350 pg/mL
maximum serum concentration (Cmax) ([2]; 1.0 μg/kg per day): 15,900±1,900 pg/mL
maximum serum concentration (Cmax) ([2]; 3.0 μg/kg per day): 43,800±18,300 pg/mL
dose-limiting toxicities ([2]; 3.0 and 1.0 μg/kg per day): grade 3 hypotension, thrombocytopenia, and elevations of ALT and AST
maximum-tolerated dose ([2]; bolus infusions for 12 consecutive days): 0.3 μg/kg per day
immune cell activation ([2]; patients): activate NK cells, monocytes, γδ, and CD8 T cells

anti-CD19 chimeric antigen receptor (scFv against CD19, human IgG CH2-CH3 hinge, CD28 transmembrane domain, CD28.CD3zeta signaling endodomain) expressed on cord blood NK cells from the iC9/CAR.19/IL15 retroviral vector
IL15 release in culture supernatant with CD19+ CLL B cells (pg/mL/10^6 cells) [3]: 27.6
